Consider 68 sequences from the supplement of paper PMC11208160.
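Also: IS621 bridge recombinase in Escherichia coli cells against a fixed T5 target plasmid.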

A short description of the data set: recombinant UMI read abundance after kanamycin selection (control-corrected) (log10(CPM+1)); higher = more efficient recombination; extreme values may be limits of the assay; sequences stand for … in AGTGCAGAGAAAATCGGCCAGTTTTCTCTGCCTGCAGTCCGCATGCCGTGGGACCCCTTGGGTTCTAACCTGTTGCCTAGATTTATGCAGCGGACTGCCTTTCTCCCAAAGTGATAAACCGG…AGGTTGGTTTCACT; site = the 11-nt donor. The method, boiled down: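 Sequenced counts of recombinant UMIs were turned into CPM, averaged across replicates and scaled with control-derived factors. The reported figure is log10(CPM+1). Those UMIs, each 12 nt long, tagged donor and donor-binding-loop pairs on a plasmid with a promoterless kanamycin gene, screened as a pool in Escherichia coli with IPTG (0.07 mM) plus kanamycin or without selection.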
“TCCACCACATGGACCGGTTTTCCCGGTAATCCGTATTTGCG (site TCCACCCCTCG)”: the “recombinant UMI read abundance (log10)” value stood at 0.0154. As to “TCCACCACATGGACCGGTTTTCCCGGTAATCCGTATTTGCG (site TCCACCGCTCG)”, the “recombinant UMI read abundance (log10)” value was 0. Take “TCCACCACATGGACCGGTTTTCCCGGTAATCCGTATTTGCG (site TCCACCTCTCG)”: the “recombinant UMI read abundance (log10)” value came to 0.00608. The value for “TCCACCGCATGGACCGGTTTTCCCGGTAATCCGTATTTGCG (site ACCACCGCTCG)” was 0.0347. The value for “TCCACCGCATGGACCGGTTTTCCCGGTAATCCGTATTTGCG (site CCCACCGCTCG)” was 0.0205. The value for “TCCACCGCATGGACCGGTTTTCCCGGTAATCCGTATTTGCG (site GCCACCGCTCG)” was 0.0147. For “TCCACCGCATGGACCGGTTTTCCCGGTAATCCGTATTTGCG (site TACACCGCTCG)”, the “recombinant UMI read abundance (log10)” value worked out at 0.0145. The result for “TCCACCGCATGGACCGGTTTTCCCGGTAATCCGTATTTGCG (site TCAACCGCTCG)” reads 0.00833. The result for “TCCACCGCATGGACCGGTTTTCCCGGTAATCCGTATTTGCG (site TCCAACGCTCG)” reads 0; that for “TCCACCGCATGGACCGGTTTTCCCGGTAATCCGTATTTGCG (site TCCACAGCTCG)”, 0.00578; that for “TCCACCGCATGGACCGGTTTTCCCGGTAATCCGTATTTGCG (site TCCACCACTCG)”, 0.00973. “TCCACCGCATGGACCGGTTTTCCCGGTAATCCGTATTTGCG (site TCCACCCCTCG)”: the “recombinant UMI read abundance (log10)” value was 0.0195.

In the case of “TCCACCGCATGGACCGGTTTTCCCGGTAATCCGTATTTGCG (site TCCACCGCTAG)”, the “recombinant UMI read abundance (log10)” value was found to be 0.00776. As to “TCCACCGCATGGACCGGTTTTCCCGGTAATCCGTATTTGCG (site TCCACCGCTCA)”, the “recombinant UMI read abundance (log10)” value is 0.0193. The result for “TCCACCGCATGGACCGGTTTTCCCGGTAATCCGTATTTGCG (site TCCACCGCTCC)” reads 0.0232. The value for “TCCACCGCATGGACCGGTTTTCCCGGTAATCCGTATTTGCG (site TCCACCGCTCG)” was 0.0267; that for “TCCACCGCATGGACCGGTTTTCCCGGTAATCCGTATTTGCG (site TCCACCGCTCT)” was 0.0151; that for “TCCACCGCATGGACCGGTTTTCCCGGTAATCCGTATTTGCG (site TCCACCGCTGG)” was 0. The value for “TCCACCGCATGGACCGGTTTTCCCGGTAATCCGTATTTGCG (site TCCACCGCTTG)” was 0. As for “TCCACCGCATGGACCGGTTTTCCCGGTAATCCGTATTTGCG (site TCCACCTCTCG)”, the “recombinant UMI read abundance (log10)” value was determined as 0.00739. The result for “TCCACCGCATGGACCGGTTTTCCCGGTAATCCGTATTTGCG (site TCCACGGCTCG)” reads 0; that for “TCCACCGCATGGACCGGTTTTCCCGGTAATCCGTATTTGCG (site TCCACTGCTCG)”, 0.0248; that for “TCCACCGCATGGACCGGTTTTCCCGGTAATCCGTATTTGCG (site TCCAGCGCTCG)”, 0.0215. The result for “TCCACCGCATGGACCGGTTTTCCCGGTAATCCGTATTTGCG (site TCCATCGCTCG)” reads 0.0351.

With “TCCACCGCATGGACCGGTTTTCCCGGTAATCCGTATTTGCG (site TCCCCCGCTCG)”, the “recombinant UMI read abundance (log10)” value came to 0.1. The result for “TCCACCGCATGGACCGGTTTTCCCGGTAATCCGTATTTGCG (site TCCGCCGCTCG)” reads 0.0234. The result for “TCCACCGCATGGACCGGTTTTCCCGGTAATCCGTATTTGCG (site TCCTCCGCTCG)” reads 0.0203; that for “TCCACCGCATGGACCGGTTTTCCCGGTAATCCGTATTTGCG (site TCGACCGCTCG)”, 0.023; that for “TCCACCGCATGGACCGGTTTTCCCGGTAATCCGTATTTGCG (site TCTACCGCTCG)”, 0.0356. For the sequence “TCCACCGCATGGACCGGTTTTCCCGGTAATCCGTATTTGCG (site TGCACCGCTCG)”, the “recombinant UMI read abundance (log10)” value came to 0.0462. The value for “TCCACCGCATGGACCGGTTTTCCCGGTAATCCGTATTTGCG (site TTCACCGCTCG)” was 0.00717; that for “TCCACCTCATGGACCGGTTTTCCCGGTAATCCGTATTTGCG (site TCCACCACTCG)” was 0.00715.

“TCCACCTCATGGACCGGTTTTCCCGGTAATCCGTATTTGCG (site TCCACCCCTCG)”: the “recombinant UMI read abundance (log10)” value was found to be 0.0186. The value for “TCCACCTCATGGACCGGTTTTCCCGGTAATCCGTATTTGCG (site TCCACCGCTCG)” was 0.0129. The value for “TCCACCTCATGGACCGGTTTTCCCGGTAATCCGTATTTGCG (site TCCACCTCTCG)” was 0.0255; that for “TCCACGCCATGGACCGGTTTTCCCGGTAATCCGTATTTGTA (site ACCACGCCTTA)” was 0.0141. The result for “TCCACGCCATGGACCGGTTTTCCCGGTAATCCGTATTTGTA (site CCCACGCCTTA)” reads 0.038. For the sequence “TCCACGCCATGGACCGGTTTTCCCGGTAATCCGTATTTGTA (site GCCACGCCTTA)”, the “recombinant UMI read abundance (log10)” value stood at 0.00791. “TCCACGCCATGGACCGGTTTTCCCGGTAATCCGTATTTGTA (site TCCACGCCTTA)”: the “recombinant UMI read abundance (log10)” value is 0.0284.

Regarding “TCCACGGCATGGACCGGTTTTCCCGGTAATCCGTATTTGCG (site TCCACAGCTCG)”, the “recombinant UMI read abundance (log10)” value turned out to be 0.0432. Take “TCCACGGCATGGACCGGTTTTCCCGGTAATCCGTATTTGCG (site TCCACCGCTCG)”: the “recombinant UMI read abundance (log10)” value is 0.023. Turning to “TCCACGGCATGGACCGGTTTTCCCGGTAATCCGTATTTGCG (site TCCACGGCTCG)”, the “recombinant UMI read abundance (log10)” value amounted to 0.0249. As for “TCCACGGCATGGACCGGTTTTCCCGGTAATCCGTATTTGCG (site TCCACTGCTCG)”, the “recombinant UMI read abundance (log10)” value was 0. The result for “TCCACTTCATGGACCGGTTTTCCCGGTAATCCGTATTTGCC (site TCCAATTCTGG)” reads 0; that for “TCCACTTCATGGACCGGTTTTCCCGGTAATCCGTATTTGCC (site TCCACTTCTGG)”, 0; that for “TCCACTTCATGGACCGGTTTTCCCGGTAATCCGTATTTGCC (site TCCAGTTCTGG)”, 0. Take “TCCACTTCATGGACCGGTTTTCCCGGTAATCCGTATTTGCC (site TCCATTTCTGG)”: the “recombinant UMI read abundance (log10)” value is 0. For the sequence “TCCAGATCATGGACCGGTTTTCCCGGTAATCCGTATTTGGG (site TCCAGATCTCC)”, the “recombinant UMI read abundance (log10)” value was 0.

With “TCCAGTGCATGGACCGGTTTTCCCGGTAATCCGTATTTGCT (site TCCAGTGCTAG)”, the “recombinant UMI read abundance (log10)” value came out at 0. The value for “TCCATTCCATGGACCGGTTTTCCCGGTAATCCGTATTTGGA (site TCCATTCCTTC)” was 0.0134; that for “TCCCAAACATGGACCGGTTTTCCCGGTAATCCGTATTTGCT (site TCCCAAACTAG)” was 0.0138.

“TCCCACCCATGGACCGGTTTTCCCGGTAATCCGTATTTGAT (site TCCCACCCTAT)”: the “recombinant UMI read abundance (log10)” value came to 0.0298. The result for “TCCCGCCCATGGACCGGTTTTCCCGGTAATCCGTATTTGCT (site TCCCGCCCTAG)” reads 0.00858; that for “TCCCTTCCATGGACCGGTTTTCCCGGTAATCCGTATTTGCG (site TCCCTTCCTCG)”, 0. For “TCCGCTGCATGGACCGGTTTTCCCGGTAATCCGTATTTGAA (site TCCGCTGCTTT)”, the “recombinant UMI read abundance (log10)” value is 0. Turning to “TCCGGTGCATGGACCGGTTTTCCCGGTAATCCGTATTTGCC (site TCCGGTGCTGG)”, the “recombinant UMI read abundance (log10)” value is 0. Turning to “TCCTACCCATGGACCGGTTTTCCCGGTAATCCGTATTTGGT (site TCCTACCCTAC)”, the “recombinant UMI read abundance (log10)” value is 0.00951. The value for “TCCTAGCCATGGACCGGTTTTCCCGGTAATCCGTATTTGTA (site TCCTAGCCTTA)” was 0.0223; that for “TCCTATTCATGGACCGGTTTTCCCGGTAATCCGTATTTGCC (site TCCAATTCTGG)” was 0.

Take “TCCTATTCATGGACCGGTTTTCCCGGTAATCCGTATTTGCC (site TCCCATTCTGG)”: the “recombinant UMI read abundance (log10)” value is 0. The result for “TCCTATTCATGGACCGGTTTTCCCGGTAATCCGTATTTGCC (site TCCGATTCTGG)” reads 0; that for “TCCTATTCATGGACCGGTTTTCCCGGTAATCCGTATTTGCC (site TCCTATTCTGG)”, 0. For “TCCTCCCCATGGACCGGTTTTCCCGGTAATCCGTATTTGCG (site TCCTCCCCTCG)”, the “recombinant UMI read abundance (log10)” value was determined as 0.00424.

For the sequence “TCCTCCGCATGGACCGGTTTTCCCGGTAATCCGTATTTGCG (site TCCACCGCTCG)”, the “recombinant UMI read abundance (log10)” value worked out at 0.00517. On to “TCCTCCGCATGGACCGGTTTTCCCGGTAATCCGTATTTGCG (site TCCCCCGCTCG)”, for which the “recombinant UMI read abundance (log10)” value is 0.0138. Take “TCCTCCGCATGGACCGGTTTTCCCGGTAATCCGTATTTGCG (site TCCGCCGCTCG)”: the “recombinant UMI read abundance (log10)” value came out at 0. For “TCCTCCGCATGGACCGGTTTTCCCGGTAATCCGTATTTGCG (site TCCTCCGCTCG)”, the “recombinant UMI read abundance (log10)” value was 0.0201. The value for “TCCTCCTCATGGACCGGTTTTCCCGGTAATCCGTATTTGCC (site TCCTCCTCTGG)” was 0.
